This is an account of results in patent US20110028758A1, “Trans-cinnamic acid derivative, its preparation mathod and the use” (priority 2007, published 2011).

Like-named read-outs stand apart in the source and are kept apart here.

Data set [1] concerns human normal embryonic kidney HEK-293 cells. Kind of data set: MTT test on normal cells, HEK-293. In kind it is cell-based. The conditions noted are these: HEK- (HEK-293), MTT, 48 hours. An excerpt:
(§1) A complete culture medium is used for diluting the above original solution into corresponding concentrations for later use.
(§2) Human cervical carcinoma Hela cells, human hepatoma BEL-7402 cells, mucinous Human epidermoid A549 lung cancer cells, human breast cancer MCF-7/S cells, human glioma U251 cells, and human normal embryonic kidney HEK-293 cells are purchased from USA, American Type Culture Collection (ATCC). All the tumor cells are used the DMEM medium (containing 10% FBS, 100 U/ml penicillin and 100 μg/ml streptomycin) for culturing and subculturing, and HEK-293 cells are using RPMI1640 medium (10% FBS, 100 U/ml penicillin, and 100 μg/ml streptomycin) for culturing and subculturing, wherein the culture condition is in a 5% CO2 incubator at 37° C.
Subculture six kinds of cells, which has a logarithmic growing period, adherent rate about 80%, and in good condition, such as human cervical carcinoma Hela cells, human hepatoma BEL-7402 cells, mucinous Human epidermoid A549 lung cancer cells, human breast cancer MCF-7/S cells, human glioma U251 cells, and human normal embryonic kidney HEK-293 cells. […] Repeat the above experiment three times to get an average value.
(§3) IR %=(1−ODsampale/ODcontrol)×100%

The conditions of data set [2]: single tail vein administration 350 mg/kg.
Method: After the drug delivery, continuously observe the mice responses for 4 hours; after all, observe the mice twice a day (one is in the morning, and the other is in the afternoon) for 14 days, wherein the observation includes the appearance, behavior, secretions, excreta of the mice etc., and recording all the death situation, poisoning symptoms, the starting time and ending time of toxic reactions of the mice, severity, duration time of toxic, and to see if it is reversible reaction etc., sent it to the pathology examination if necessary, weight the mice before and after the drug delivered day of 3, 7, 10, and 14 days. After finishing the observation process, execute all of the mice, and anatomize the dead bodies of mice.
Data set [3] relates to human hepatoma BEL-7402 cells. The data set can be described thus: MTT anti-tumor test in vitro, BEL-7402. The class given is cell-based. The conditions noted are these: Bel- (BEL-7402).
Excerpt: as §1, §2
(§4) Subculture six kinds of cells, which has a logarithmic growing period, adherent rate about 80%, and in good condition, such as human cervical carcinoma Hela cells, human hepatoma BEL-7402 cells, mucinous Human epidermoid A549 lung cancer cells, human breast cancer MCF-7/S cells, human glioma U251 cells, and human normal embryonic kidney HEK-293 cells. Discard the culture medium, rinse 1-2 times with PBS to remove serum, add 1 ml 0.25% Trypsin-0.01% EDTA (37° C. incubation) to digest for 1-2 minutes, add FBS culture medium to terminate the above digestion, centrifuge at a speed below 800 r/min for 2-3 minutes and discard the supernatant, re-suspended cells in 10% FBS medium, tack the cell suspension liquid for cell counting, adjust the density of the above liquid to 1×10^5/ml, then inoculate to a 96-holes plates (100 μl/hole), and then incubate in 5% CO2 incubator at 37° C. overnight. The next day add above cells to different concentrations of I-a, I-b, I-c and I-d, 100 μl/hole (its final concentration is respectively 30, 60, 120, 240, 480 μg/ml); meanwhile, set up the blank control group (0 μM), and establish 3 holes. Continuing the cultural process, discard the culture medium after 48 hours that the drug has been effected, add 100 μl PBS of 0.5 mg/ml MTT (PH 7.2) into each holes, after 4 hours culture, remove the culture medium by adherent cells express flipping method, add 100 μl of DMSO to each holes, oscillate it by micro-oscillation device for 5 minutes, and measure the OD value at 490 nm wavelength. Repeat the above experiment three times to get an average value. Calculate the inhibition rate (IR %) of the tumor cell proliferation in vitro from different concentrations of I-a, I-b, I-c, I-d by the following formula:
as §3
(§5) Use SPSS11.5 software to calculate the half inhibitory concentration IC50 of I-a, I-b, I-c and I-d. The results are shown in Table 2 to illustrate IC50 values (unit: μg/ml) of the four compounds.
For orientation: Formazan colour is commonly taken as a measure of viable cells.

Data set [4] has as its system human glioma U251 cells. The data set can be described thus: MTT anti-tumor test in vitro, U251. In kind it is cell-based.
Excerpt: as §1, §2, §4, §3, §5

Data set [5] deals with mice ascites hepatoma cell strain H22. The data set can be described thus: Anti-tumor test in vivo, mice transplanted tumor of liver cancer H22. Also noted: species or system Kunming mice. The method, then:
The mice ascites hepatoma cell strain H22 is purchased from the Experimental Center of Zhongshan University.
Recovery the mice ascites hepatoma cell strain H22, put the cell suspension liquid into a centrifugal tube and use the 4° C. saline to wash the suspension liquid twice, then centrifuge to discard the supernatant, add appropriate 4° C. saline to dilute the suspension liquid, count cells with 0.2% trypan blue, adjust the density to 10^7 cell/ml, according to 0.2 (ml/mice) intraperitoneal inoculation H22 cell suspension liquid.
After ten days of the intraperitoneal inoculation, the cervical vertebra is dislocated. Disinfect the mice abdominal skin, and suck the milky ascites with a sterile syringe, then adjust the concentration of tumor cells to 1×10^7 cell/ml with injection used saline. Disinfect the right armpit skin of the Kunming mice with alcohol swab, subcutaneously vaccinate the cell suspension liquid 0.2 ml, conventional feeding. […] Totally there are 180 tumor-bearing mice.
(§6) The 180 tumor-bearing mice are divided into 18 groups by the weigh of the mice, wherein each group has 10 mice (half male and half female). The drug delivery methods of each group are shown in Table 3 to illustrate eighteen groups of mice drug delivery situation.
Group 1 is the model group, and the mice of group 1 are given the tail vein saline injection daily started on the second day of the tumor-bearing for 10 days.
(§7) Group 2 is the cyclophosphamide (CTX) group, and the mice of group 2 are only given the cyclophosphamide in the intraperitoneal of the mice on the second day of the tumor-bearing.
(§8) Group 3 to 18 groups are given the four compounds respectively, wherein the groups delivered 25 mg/kg drug are tail vein low-dose group, wherein the groups delivered 50 mg/kg drugs are the tail vein medium-dose group, wherein the groups delivered 100 mg/kg drugs are the tail vein high-dose group, wherein the groups delivered 200 mg/kg drugs are the oral enteral group. These mice from group 3 to 18 start the drug delivery on the second day of the tumor-bearing, and delivered once a day for 10 sequent days.
The above drug deliveries are 20 ml/kg.
After finishing the drug delivery process, weight the mice, then kill the mice by pulling off the neck, and anatomy to get the tumor tissue of the mice on the next day of finishing the drug delivery process, and then weight the anatomized tumor by electronic weighing scales to calculate the inhibition rate.

Excerpt in data set [6]: as §6, §7, §8
After the drug delivery, weight the mice weight, then execute the mice, and then weight the spleen and thymus weight by electronic weighting scale respectively. The spleen index and thymus index are the weight (mg) of mice spleen, thymus of each group/mice weight (g).

Data set [7] has as its system human cervical carcinoma Hela cells. Kind of data set: MTT anti-tumor test in vitro, Hela. The class given is cell-based. The conditions noted are these: for IC50 value: Hela, MTT, 48 hours.
Excerpt: as §1, §2, §4, §3, §5

For data set [8], the system named is human breast cancer MCF-7/S cells. Kind of data set: MTT anti-tumor test in vitro, MCF-7/S. The class given is cell-based. The conditions noted are these: MCF-7 (MCF-7/S).
Excerpt: as §1, §2, §4, §3, §5

Data set [9] relates to mucinous Human epidermoid A549 lung cancer cells. The data set can be described thus: MTT anti-tumor test in vitro, A549. In kind it is cell-based. The conditions noted are these: for IC50 value: A549, MTT, 48 hours.
Excerpt: as §1, §2, §4, §3, §5

Where [10] appears, read: average of three experiments ± SD.
The mark [11] stands for this setting: average of three experiments ± SD, 48 hours.
Where [12] appears, read: ip. 60/single mg/kg on the second day of tumor-bearing.
Where [13] appears, read: ip. 60/single mg/kg on the second day of tumor-bearing, H22 tumor-bearing mice.

Regarding “2,4-dimethoxy-3-isopentenyl-cinnamic acid (E:Z=1:1) [I-d]”, the IC50 value in data set [1] (setting [10]) was 350.77 ± 14.09 µg/mL; in data set [1] (experiment 1), 347 µg/mL; in data set [1] (experiment 2) it was 366 µg/mL; in data set [3] (setting [11]), 216.72 ± 5.07 µg/mL; in data set [3] (experiment 1, 48 hours), 221 µg/mL; in data set [3] (experiment 2, 48 hours), 211 µg/mL. In addition, the IC50 value in data set [4] (setting [11]) amounted to 204.44 ± 9.50 µg/mL; in [4] (experiment 1, 48 hours), 210 µg/mL; in [4] (experiment 2, 48 hours), 193 µg/mL; in data set [7] (setting [10]), 153.59 ± 13.03 µg/mL; in [7] (experiment 1), 144 µg/mL; in [7] (experiment 2) it was 149 µg/mL. The IC50 value in data set [8] (setting [11]) stood at 193.46 ± 7.57 µg/mL; in [8] (experiment 1, 48 hours) it was 200 µg/mL; in [8] (experiment 2, 48 hours) it was 196 µg/mL; in data set [9] (experiment 1), 190 µg/mL; in data set [9] (experiment 2), 183 µg/mL. In addition, in data set [2], the “drug reaction after administration” value was “abnormally excited at first, and then become in an inhibit state”. Moreover, the Tumor weight/g in data set [5] (i.g. 200 mg·(kg·d)^−1, once a day for 10 days) worked out at 0.991 ± 0.410 g; in data set [5] (i.v. 25 mg·(kg·d)^−1, once a day for 10 days) it was 1.307 ± 0.436 g; in [5] (i.v. 50 mg·(kg·d)^−1, once a day for 10 days), 1.068 ± 0.437 g; in data set [5] (i.v. 100 mg·(kg·d)^−1, once a day for 10 days), 0.901 ± 0.425 g. Besides, the “IR/% (inhibition rate)” value in data set [5] (i.v. 25 mg·(kg·d)^−1, once a day for 10 days (low-dose group)) was determined as 14.7%; in [5] (i.v. 50 mg·(kg·d)^−1, once a day for 10 days (medium-dose group)) it was 30.3%; in data set [5] (i.v. 100 mg·(kg·d)^−1, once a day for 10 days (high-dose group)) it was 41.2%. Moreover, in [6] (mouse, in vivo), the “Mice weight/g After drug delivery” value is on record as 20.0 ± 2.1 g. In addition, the “Mice weight/g Before drug deli.” value in [6] (mouse, in vivo) stood at 24.6 ± 2.9 g. In data set [6] (mouse, in vivo), the “effect near the tail vein of the mice and its surrounding tissue” value was “irritation or corrosive”. Besides, the “general observation after injection (central nervous signs)” value in data set [6] (mouse, in vivo) is reported as “central nerve inhibition phenomenon”. Also, in data set [6] (mouse, in vivo), the “splenomegaly of the tumor-bearing mice” value is recorded as “can cause the splenomegaly”. Also, the “HeLa cell proliferation IC50 values” in [7] (at 48 hours) was found to be 148.59 ± 5.96 µg/mL. The “A549 cell proliferation IC50 values” in data set [9] (at 48 hours) was found to be 184.56 ± 5.80 µg/mL.

Take `O=P1(N(CCCl)CCCl)NCCCO1` (centres unmarked) [CTX, cyclophosphamide, reference compound]: in [5] (setting [12]), the “IR/% (inhibition rate)” value amounted to 55.2% and the Tumor weight/g was determined as 0.686 ± 0.303 g. Further, in data set [6] (setting [13]), the “Mice weight/g After drug delivery” value stood at 19.6 ± 2.0 g, the “Mice weight/g Before drug deli.” value is 23.6 ± 1.8 g, the “Spleen index/mg · g^−1” value came out at 3.00 ± 0.59 mg/g and the “Thymus index/mg · g^−1” value worked out at 2.46 ± 0.65 mg/g.
